From US20110076331A1, “Use of Deuterium Oxide as an Elastase Inhibitor” (priority 2008, published 2011) come the findings set out here.

The target in assay [1] is T1, human neutrophil elastase (HNE) (Homo sapiens, UniProt P08246).
T1 sequence (P08246 30-267): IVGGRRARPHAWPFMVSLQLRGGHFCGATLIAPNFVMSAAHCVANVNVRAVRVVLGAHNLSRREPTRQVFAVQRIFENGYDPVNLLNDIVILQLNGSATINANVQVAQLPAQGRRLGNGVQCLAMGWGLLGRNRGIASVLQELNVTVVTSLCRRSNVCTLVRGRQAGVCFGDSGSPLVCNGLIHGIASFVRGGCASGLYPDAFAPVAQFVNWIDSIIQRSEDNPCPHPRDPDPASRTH
Nature of the assay: Inhibition of AAPV conversion by human neutrophil elastase (photometric, 405 nm). The format is biochemical. How it is done:
Measurement of AAPV conversation occurred spectrophotometrically at a wavelength of 405 nm.
HNE was incubated together with the synthetic substrate N-methoxysuccinyl-Ala-Ala-Pro-Val-p-nitroanilide (AAPV). Conversion of AAPV was then determined photometrically at 405 nm. The following incubation scheme was used: • Sample 1) HNE IN D2O with AAPV in D2O; • Sample 2) HNE in D2O with AAPV in H2O; • Sample 3) HNE in H2O with AAPV in D2O; • Control: HNE in H2O with AAPV in H2O.
The enzyme and substrate were each incubated for 60 minutes with H2O or D2O before HNE and AAPV were added together. The amount of D2O in the experiments was varied over a range from 10 to 100% in order to detect the dependence of inhibition of AAPV conversion by HNE.
A half-maximum effective dose was determined at a D2O content of about 40 vol %. At 100% D2O in the mixture an inhibition of AAPV conversion of about 70% was achieved.

The next assay deals with Syrian Gold hamsters. Nature of the assay: D2O instillation in an animal model of COPD (HNE-induced hemorrhage). In kind it is in vivo, hamster. The procedure:
To investigate the effect of D2O in a model for chronic obstructive pulmonary disease (COPD) male Syrian Gold hamsters (average weight 118 g±4 g) were divided into two groups (experimental group and control group) of 10 hamsters each. The animals of both groups were initially anesthetized intraperitoneally (ketamine 95 mg/kg and xylazine 17 mg/kg) and then intubated endotracheally with direct laryngoscopy. The experimental group received 250 μL of 0.9% NaCl solution based on D2O (98.5% deuterium enrichment) instilled, whereas 250 μL of a corresponding isotonic NaCl solution based on H2O was used in the control group. Each animal received after the end of this instillation a second instillation at a time interval of 30 minutes, which was identical for both groups: 100 μL of human neutrophil elastase (HNE, 500 μg/mL in sterile 0.9% NaCl solution). The animals were killed 4 hours (six animals per group) or 24 hours (four animals per group) after the last instillation (phenobarbital 70 mg/kg intraperitoneally).
For the animals killed 4 hours after instillation a BAL (bronchoalveolar lavage) was performed. 2.5 mL 0.9% NaCl solution was repeatedly instilled (total 3 times) for BAL and the hemoglobin concentration in the instillate then determined spectrophotometrically. The obtained value was used as a gauge for lung damage (hemorrhage) by human neutrophil elastase (HNE). For the control group an average hemoglobin value of 320±50 mOD (milli-optical density) was obtained. For the experimental group an average hemoglobin value of 170±20 mOD was measured.
For the animals killed 24 hours after instillation the lungs were removed, fixed in formalin and embedded in paraffin. Histologic longitudinal sections of the lungs in the direction of the lung hilus were prepared, stained and made visible with iron by means of an histochemical reaction (Berlin blue reaction), which serves as a gauge for the intensity of HNE-induced hemorrhage. The microscopic investigation of the sections gave the following result: […]

Another assay relates to Long-Evans rats. Nature of the assay: Cerebral ischemia/reperfusion animal model. The format is in vivo, rat. The conditions noted are these: D2O in isotonic saline infused 15 minutes before ischemia and right before reperfusion; vs H2O. The procedure: The effect of D2O on cerebral ischemia was investigated in an animal model. For this purpose cerebral ischemia was produced for 1 hour in adult Long-Evans rats by closure of both carotid arteries, which followed reperfusion over 24 hours. Final observation with evaluation of neurovegetative symptoms occurred (spontaneous activity, coordinated walking, stretching of the front paw and climbing). Damage to the brain tissue was then investigated histologically. In two experimental groups of three rats each, either D2O (experimental group) or H2O (control group) in isotonic saline was infused in the animals 15 minutes before initiation of ischemia and right before subsequent reperfusion.

The test system of assay [2] is patients with psoriasis vulgaris. The assay is described as follows: Half-side hydrogel experiment in psoriasis vulgaris. The format is in vivo, human. The note with it: 2 wt % Carbopol 980 gel with 1 wt % urea, twice a day, after 4 weeks; vs H2O gel. The procedure: A half-side experiment was conducted by means of hydrogel to determine the effect of D2O in psoriasis vulgaris. The gel was a 2 wt % Carbopol 980 with 1 wt % urea. The pH value of the gel was set at 6.5 with NaOH solution. […] The local psoriasis severity index (LPSI) was used for evaluation (Henneicke-von Zepelin, H. H., Mrowietz, U., Färber, L., Bruck-Borchers, K., Schober, C., Huber, J., Lutz, G., Kohnen, R., Christophers, E., Welzel, D., Highly purified omega-3-polyunsaturated fatty acids for topical treatment of psoriasis. Results of a double-blind, placebo-controlled multicenter study. Br J Dermatol. 1993; 129:713-7). The patients were relied on to apply the content of tubes marked “right” and “left” twice a day on the corresponding lesions on the right or left elbow. A gel produced with D2O was found in one tube, the gel in the other tube was prepared with H2O. Division occurred randomly. LPSI was determined once a week.

The subject of assay [3] is subjects with acute sinusitis. Nature of the assay: Aerosol inhalation in acute sinusitis (rhinoendoscopy). The format is in vivo, human. The note with it: D2O aerosol with 150 mM NaCl inhaled for 15 minutes. The procedure: Aerosols from D2O and H2O each mixed with 150 mM NaCl were prepared according to example 2. Subjects with acute sinusitis in the maxillary sinus area were divided into two groups. The experimental group inhaled the D2O aerosol for 15 minutes, the control group the H2O aerosol. During inhalation the subjects were relied on to inhale through the nose as much as possible. Every 3 hours after inhalation a rhinoendoscopic examination of the sinuses was conducted.

The subject of assay [4] is patients with leukocytoclastic skin vasculitis. Nature of the assay: Half-side gel experiment in leukocytoclastic skin vasculitis. The note with it: D2O-containing gel on lower leg three times a day, 4 days; vs H2O gel. The format is in vivo, human. The procedure: Leukocytoclastic skin vasculitis is characterized by recurring behavior. A special feature of this dermatosis is destruction of cutaneous capillaries by an inflammatory process in which neutrophil granulocytes participate almost exclusively. To check the effect of D2O-containing gel on the extent of cutaneous lesions patients with leukocytoclastic skin vasculitis were treated in a half-side experiment. Either an H2O- or D2O-containing gel were applied in randomized fashion on the right or left lower leg three times a day. After a treatment time of 4 days the treatments was compared by means of a clinical score that evaluates the number and expression of vasculitis lesions.

Turning to `[2H]O[2H]` [D2O, deuterium oxide], the “half-maximum effective dose (D2O content) for inhibition of AAPV conversion” value in assay [1] (D2O amount in the mixture of HNE and AAPV, 60 minutes preincubation) is on record as “about 40 vol %”. Moreover, the “inhibition of AAPV conversion” value in assay [1] (at 100% D2O in the mixture) is listed as “about 70%”. Moreover, in the assay with Syrian Gold hamsters (250 μL 0.9% NaCl solution based on D2O instilled 30 minutes before HNE, animals killed 4 hours after instillation), the “average hemoglobin value in BAL” value is given as 170±20 mOD. Further, the “blue-stained cells in lung sections (Berlin blue reaction), intensity of HNE-induced hemorrhage” value with Syrian Gold hamsters (animals killed 24 hours after instillation, vs H2O control group) is given as “significantly smaller number of blue-stained cells”. The “inhibition of the acute lung damage caused by elastase (hemorrhage)” value in the assay on Syrian Gold hamsters (instillation, from reduction in hemoglobin concentration in BAL vs H2O control group, 4 hours) came out at 47%. For the same compound, the “reperfusion damage (granulocytes in histological sections, neurological behavior)” value with Long-Evans rats is “significant effect on the reduction in reperfusion damage”. In addition, the “local psoriasis severity index (LPSI)” value in assay [2] is “significant reduction of LPSI”. For the same compound, the mucosal swelling entry in assay [3] (vs H2O aerosol control group) is listed as “significant reduction of mucosal swelling”. Besides, in assay [3] (vs control group), the outflow of secretion entry was “improved outflow of secretion”. In assay [4], the “clinical score (number and expression of vasculitis lesions)” value is listed as “distinct reduction of the clinical score”.
